The results in this text go back to patent publication US7625875B2 (priority 2002, dated 2009).

For one series, the system named is BVDV. Type of series: cell-based, bovine viral diarrhea virus.
A further series deals with YFV. Type of series: cell-based, yellow fever virus. The note with it: Tables 30b, 30k-30o.
Another series deals with DENV 2. Briefly: microbe, parasite or virus in culture. Type of series: cell-based, dengue virus. Particulars: read-out: DENV 2.
A further series relates to WNV. The series can be described thus: microbe, parasite or virus in culture. Type of series: cell-based, West Nile virus. The note with it: read-out: WNV.
The next series relates to CVB-2. The series can be described thus: organism not typed. Type of series: cell-based, Coxsackie B-2 virus.
A further series deals with CVB-3. Type of series: cell-based, Coxsackievirus B-3.
The subject of another series is CVB-4. Type of series: cell-based, Coxsackievirus B-4.
Another series deals with CVA-9. Type of series: cell-based, Coxsackievirus A-9.
The test system of a further series is Sb-1. Briefly: organism not typed. Type of series: cell-based, Sabin type 1 poliomyelitis virus.
In a further series the test system is REO-1. Briefly: microbe, parasite or virus in culture. Type of series: cell-based, double-stranded RNA Reovirus.
For series [1], the system named is MT-4 human T-lymphocyte cells.
Series [2] has as its system Vero 76, African green monkey kidney cells.
The next series deals with HepG2 cells. The series can be described thus: Incorporation of drug into cellular RNA and DNA. Particulars: 10 μM [3H] drug, 30 hours.

Where “and” joins values, the source holds several entries; their conditions need not be identical. Equal values may be shown once. Read-outs that look alike come from different tables or passages of the source.

In the case of `C[C@@]1(O)[C@H](O)[C@@H](CO)O[C@H]1n1cnc2c(Cl)nc(N)nc21` [Compound D, β-D-2′-C-methyl-6-chloro-guanosine], the EC50 in the series on BVDV was found to be 0.7 µM; in the series with YFV, 1 µM; in the series with DENV 2, 0.7 µM; with WNV, 0.3 µM; in the series on CVB-2 (read-out: CVB-2), 25 µM; with CVB-2 (read-out: EC50 CVB-2), 25 µM. Also, the EC50 in the series on CVB-3 is 21 µM; in the series with CVB-4 it was 25 µM; in the series with CVA-9, 37 µM; in the series on Sb-1 (read-out: EC50 Sb-1), 50 µM; with Sb-1 (read-out: Sb-1), 50 µM; in the series on REO-1 (read-out: EC50 REO-1), 0.4 µM. In the series with REO-1 (read-out: REO), the EC50 amounted to 0.4 µM. Also, the CC50 in series [1] is over 100 µM; in series [2], over 100 µM; in the series on BHK, 30 µM.

On to `CC(C)[C@H](N)C(=O)OC[C@H]1O[C@@H](n2cnc3c(=O)[nH]c(N)nc32)[C@](C)(O)[C@@H]1OC(=O)[C@@H](N)C(C)C` [Compound E, 3′,5′-di-O-valinyl ester of β-D-2′-C-methyl-guanosine], for which the EC50 in the series on BVDV came to 4.9 µM; with YFV it was 1 µM; in the series with DENV 2, 1.4 µM; with WNV it was 1 µM; in the series on CVB-2 (read-out: CVB-2), 33 µM; in the series with CVB-2 (read-out: EC50 CVB-2) it was 33 µM. In addition, the EC50 came out at 30 µM in the series with CVB-3; 35 µM in the series with CVB-4; 40 µM in the series on CVA-9; 55 µM in the series on Sb-1 (read-out: Sb-1); 2 µM with REO-1 (read-out: EC50 REO-1); 2.1 µM in the series on REO-1 (read-out: REO). The CC50 in series [1] was over 100 µM; in [2] it was over 100 µM; with BHK, 100 µM.

Consider `C[C@@]1(O)[C@H](O)[C@@H](CO)O[C@H]1n1cnc2c(N)nc(N)nc21` [Compound B, β-D-2′-C-methyl-2-amino adenosine], for which the EC50 in the series on BVDV is 2.1 µM; in the series on YFV, 0.8 µM; with DENV 2, 0.7 µM; with WNV, 0.3 µM; with CVB-2 (read-out: CVB-2) it was 76 µM; in the series on CVB-2 (read-out: EC50 CVB-2), 75 µM. In addition, the EC50 turned out to be 23 µM with CVB-3; 32 µM in the series on CVB-4; 39 µM in the series with CVA-9; 90 µM in the series on Sb-1 (read-out: EC50 Sb-1); 90 µM in the series on Sb-1 (read-out: Sb-1); 2 µM in the series on REO-1 (read-out: EC50 REO-1). For the same compound, the EC50 with REO-1 (read-out: REO) amounted to 2 µM. Besides, the CC50 was over 100 µM in [1], over 100 µM in series [2] and 50 µM in the series on BHK.

In the case of `C#C[C@@]1(O)[C@H](O)[C@@H](CO)O[C@H]1n1ccc(N)nc1=O` [Compound I, β-D-2′-C-ethynyl-cytidine], the EC50 is 33 µM with CVB-2 (read-out: EC50 CVB-2); 33 µM with CVB-3; 24 µM with CVB-4; 59 µM in the series with CVA-9; 26 µM in the series on Sb-1 (read-out: EC50 Sb-1); over 100 µM in the series with REO-1 (read-out: EC50 REO-1). For the same compound, the CC50 was at least 100 µM in series [1], over 100 µM in [2] and over 100 µM in the series on BHK.

On to `CC(C(=O)c1ccccc1)n1c(N)nc2c(ncn2[C@@H]2O[C@H](CO)[C@@H](O)[C@@]2(C)O)c1=O` (stereo partly drawn) [Compound L, β-D-2′-C-methyl-1-(methyl-2-oxo-2-phenylethyl)guanosine], for which the EC50 with BVDV is 12 µM; in the series with YFV, 6 µM; with DENV 2, 4.4 µM; in the series with WNV it was 3 µM; with CVB-2 (read-out: CVB-2) it was over 100 µM; in the series with Sb-1 (read-out: Sb-1) it was over 100 µM. In addition, the EC50 in the series with REO-1 (read-out: REO) worked out at 12 µM. The CC50 in [1] was over 100 µM.

`C[C@@]1(O)[C@H](O)[C@@H](CO)O[C@H]1n1cnc2c(NC3CC3)nc(N)nc21` [Compound K, β-D-2′-C-methyl-2-amino-6-cyclopropyl adenosine]: the EC50 was 18 µM in the series with BVDV; 10 µM in the series with YFV; 4.9 µM in the series with DENV 2; 3.5 µM in the series on WNV; over 100 µM in the series on CVB-2 (read-out: CVB-2); over 100 µM with Sb-1 (read-out: Sb-1). Also, the EC50 with REO-1 (read-out: REO) worked out at 9.5 µM. The compound further yielded a CC50 in [1] of over 100 µM.

`Nc1nc(N)c2ncn([C@@H]3O[C@H](CO)[C@@H](O)[C@H]3O)c2n1` [Compound J, β-D-2-amino-adenosine]: the EC50 in the series on CVB-2 (read-out: EC50 CVB-2) is 53 µM; in the series with CVB-3, 55 µM; in the series on CVB-4, 50 µM; with CVA-9, 53 µM; with Sb-1 (read-out: EC50 Sb-1), 40 µM; with REO-1 (read-out: EC50 REO-1) it was over 100 µM. In addition, the CC50 in [1] was 50 µM; in series [2], over 100 µM; in the series on BHK, over 100 µM.

In the case of `Cc1cn([C@H]2C[C@H](N=[N+]=[N-])[C@@H](CO)O2)c(=O)[nH]c1=O` [ZDV, zidovudine], in the series on HepG2 cells, the “Incorporated drug amount, DNA” value is 0.103 pmole/μg DNA and 0.103 ± 0.0123^a pmole/μg DNA; the “Incorporated drug amount, RNA” value is 0.0009 pmole/μg RNA and 0.0009 ± 0.0003^a pmole/μg RNA.

For `C[C@@]1(O)[C@H](O)[C@@H](CO)O[C@H]1n1cnc2c(N)ncnc21` [Compound A, β-D-2′-C-methyl-adenosine], the EC50 in the series on BVDV worked out at 1.2 µM; in the series on YFV it was 2.7 µM; with DENV 2, 2.7 µM; with WNV it was 3.6 µM; with CVB-2 (read-out: CVB-2), 7 µM; with CVB-2 (read-out: EC50 CVB-2), 10 µM. The EC50 with CVB-3 is 14 µM; in the series on CVB-4, 13 µM; in the series with CVA-9, 12 µM; in the series with REO-1 (read-out: EC50 REO-1) it was over 70 µM; with REO-1 (read-out: REO), over 70 µM. Moreover, the CC50 in [1] turned out to be 4 µM; in series [2] it was 80 µM; with BHK it was 70 µM.

Consider `C[C@@]1(O)[C@H](O)[C@@H](CO)O[C@H]1n1cnc2c(=O)[nH]c(N)nc21` [Compound C, β-D-2′-C-methyl-guanosine], for which the EC50 was found to be 3.5 µM with BVDV; 1.2 µM with YFV; 1.4 µM in the series on DENV 2; 0.6 µM in the series on WNV; 29 µM with CVB-2 (read-out: CVB-2); 30 µM in the series on CVB-2 (read-out: EC50 CVB-2). For the same compound, the EC50 was 22 µM in the series on CVB-3; 12 µM with CVB-4; 46 µM in the series on CVA-9; 50 µM with Sb-1 (read-out: Sb-1); 2 µM in the series with REO-1 (read-out: EC50 REO-1); 2 µM in the series with REO-1 (read-out: REO). Further, the CC50 was over 100 µM in [1], over 100 µM in series [2] and 100 µM with BHK.

For `C#C[C@@]1(O)[C@H](O)[C@@H](CO)O[C@H]1n1cnc2c(N)ncnc21` [Compound H, β-D-2′-C-ethynyl-adenosine], the EC50 in the series on BVDV is 0.4 µM; in the series on YFV, 2 µM; in the series on DENV 2, 1.1 µM; with WNV it was 1 µM; in the series with CVB-2 (read-out: CVB-2) it was 1.2 µM; in the series on CVB-2 (read-out: EC50 CVB-2), 1.5 µM. The EC50 was determined as 1 µM in the series on CVB-3; 2 µM with CVB-4; 2.5 µM in the series with CVA-9; 0.7 µM in the series with Sb-1 (read-out: Sb-1); 6 µM in the series on REO-1 (read-out: EC50 REO-1); 6 µM in the series with REO-1 (read-out: REO). Besides, the CC50 in series [1] turned out to be 4.6 µM; in series [2], 60 µM; with BHK, 15 µM.
